Like-named read-outs stand apart in the source and are kept apart here.
Columns and labels:
guinea pig chymase = molecular target: T1, guinea pig chymase (Cavia porcellus, UniProt A7WPL7, G52S); experiment: Assay for chymase inhibition (fluorogenic AAPF-AMC substrate), guinea pig chymase; type: biochemical; details: recombinant guinea pig chymase; 0.02 mM AAPF-substrate, 1 nM chymase, pH 7.4, 30 min pre-incubation, room temperature; read-out: Inhibition of guinea pig chymase activity, IC50, GP chymase
T1 construct: Thereby the mature guinea pig chymase with the correct N-terminus was formed; 26-amino acid N-terminal polypeptide with 6xHis tag and enterokinase cleavage site (N, cleaved yes); made in house
T1 sequence (A7WPL7 22-247 G52S): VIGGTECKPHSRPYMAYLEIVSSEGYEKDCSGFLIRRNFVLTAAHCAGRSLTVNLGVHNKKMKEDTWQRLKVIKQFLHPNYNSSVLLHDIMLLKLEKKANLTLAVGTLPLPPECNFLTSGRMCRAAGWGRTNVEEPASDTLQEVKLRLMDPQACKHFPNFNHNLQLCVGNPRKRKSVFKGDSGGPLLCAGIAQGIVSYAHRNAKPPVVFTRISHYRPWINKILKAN

Human Chymase coli = molecular target: T2, Human Chymase coli (Homo sapiens, UniProt P23946); experiment: Assay for chymase inhibition (fluorogenic AAPF-AMC substrate), human chymase; type: biochemical
T2 construct: Chymase purified from human skin mast cells was obtained from Calbiochem; purchased Calbiochem (Merck Biosciences, San Diego, Calif., USA); host or cells: human skin mast cells
T2 sequence (P23946 22-247): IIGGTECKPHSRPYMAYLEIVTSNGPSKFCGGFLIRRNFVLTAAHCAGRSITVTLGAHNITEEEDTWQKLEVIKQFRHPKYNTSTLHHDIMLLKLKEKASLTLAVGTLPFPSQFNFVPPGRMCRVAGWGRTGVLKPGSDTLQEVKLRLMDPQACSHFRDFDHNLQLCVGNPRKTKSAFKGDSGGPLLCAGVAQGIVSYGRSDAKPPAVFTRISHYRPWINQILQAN
Experimental: The peptide was synthesized with a purity of 95% from Bachem, Bubendorf, Switzerland). Chymase purified from human skin mast cells was obtained from Calbiochem (Merck Biosciences, San Diego, Calif., USA). The assay buffer was 0.15 M NaCl, 0.05M, Tris HCl, 0.05% CHAPS, 0.1 mg/ml Heparin (Heparin sodium, Sigma, porcine intestinal mucosa), 0.02mM AAPF-substrate, 1 nM Chymase at pH 7.4. The assay was performed in 96-well plates (Packard Optiplate), with a 0.05 ml volume at room temperature. Chymase activity was indicated by the initial rate of increase in fluorescence at 340/440 nm (excitation/emission) from free 7-amino-4-methylcoumarin released from the substrate. Inhibition of the activity by inhibitory compounds was read after 30 min pre-incubation with the chymase at room temperature in assay buffer without AAPF-substrate. The assay was then started by addition of the indicated concentration of AAPF-substrate.

## CC(=O)NCCc1c(C(c2ccccc2)c2c(O)c3ccccc3n(C)c2=O)[nH]c2ccccc12 (stereo not shown) [SF2809-V, N-(2-{2-[(4-Hydroxy-1-methyl-2-oxo-1,2-dihydro-quinolin-3-yl)-phenyl-methyl]-1H-indol-3-yl}-ethyl)-acetamide]
Guinea pig chymase
  IC50: 940 nM
Human Chymase coli; human chymase, 0.02 mM AAPF-substrate, 1 nM chymase, pH 7.4, 30 min pre-incubation, room temperature, read-out: Inhibition of chymase activity, IC50, Human Chymase coli
  IC50: 570 nM

## COC(=O)c1ccc(NS(=O)(=O)c2sc3ccc(F)cc3c2C)c(S(C)(=O)=O)c1 [TY-51076, 4-(5-Fluoro-3-methyl-benzothiophene-2-sulfonylamino)-3-methanesulfonyl-benzoic acid methyl ester]
Guinea pig chymase
  IC50: 345 nM
Human Chymase coli
  IC50: 590 nM

From patent US20070016970A1, “Guinea pig-chymase” (priority 2005, published 2007)
